Results published in US7687510B2, “Pyrimidinone derivatives as therapeutic agents against acute and chronic inflammatory, ischaemic and remodelling processes” (Bayer Healthcare AG, priority 2002, dated 2010).

What follows are compounds tested against T1, human neutrophil elastase (HNE) (Homo sapiens, UniProt P08246) (assay: In vitro inhibition of HNE using a fluorogenic peptide substrate (continuous read-out signal, 384 MTP assay format)). Conditions: substrate MeOSuc-Ala-Ala-Pro-Val-AMC, 37° C.
T1 construct: purchased SERVA Electrophoresis GmbH, Heidelberg, Germany #20927.01
T1 sequence (P08246 30-267): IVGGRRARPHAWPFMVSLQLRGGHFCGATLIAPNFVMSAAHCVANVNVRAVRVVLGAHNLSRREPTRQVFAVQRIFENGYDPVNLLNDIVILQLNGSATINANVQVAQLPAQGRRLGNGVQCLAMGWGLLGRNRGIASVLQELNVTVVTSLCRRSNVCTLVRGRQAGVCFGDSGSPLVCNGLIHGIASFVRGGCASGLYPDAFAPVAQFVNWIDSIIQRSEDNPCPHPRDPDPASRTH
Format: biochemical
Description: I. In vitro Enzyme Assays of Human Neutrophil Elastase (HNE)
assay buffer: 0.1 M HEPES-NaOH buffer pH 7.4, 0.5 M NaCl, 0.1% (w/v) bovine serum albumin;
suitable concentration (see below) of substrate in assay buffer;
suitable concentration of test compounds diluted with assay buffer from a 10 mM stock solution in DMSO.
The test solution is prepared by mixing 10 μl of test compound dilution, 20 μl of HNE enzyme dilution (final concentration 8-0.4 μU/ml, routinely 2.1 μU/ml) and 20 μl of substrate dilution (final concentration 1 mM-1 μM, routinely 20 μM), respectively. The solution is incubated for 0-2 hrs at 37° C. (routinely one hour). The florescence of the liberated AMC due to the enzymatic reaction is measured at 37° C. (TECAN spectra fluor plus plate reader). […] IC50 values are determined by RFU-versus-[I] plots. Km and Km(app.) values are determined by Lineweaver-Burk inverted to Ki values by Dixon plots.
`CCOC(=O)C1=C(C)N(c2cccc(C(F)(F)F)c2)C(=O)NC1c1ccc([N+](=O)[O-])cc1` (stereo not shown) [Example 110, Ethyl 6-methyl-4-(4-nitrophenyl)-2-oxo-1-[3-(trifluoromethyl)phenyl]-1,2,3,4-tetra-hydropyrimidine-5-carboxylate] was tested, and the IC50 was 50 nM. With `N#CC1=C(N)N(c2cccc(C(F)(F)F)c2)C(=O)NC1c1ccc(C#N)cc1` (stereo not shown) [Example 9, 6-Amino-4-(4-cyanophenyl)-2-oxo-1-[3-(trifluoromethyl)phenyl]-1,2,3,4-tetrahydro-5-pyrimidinecarbonitrile] the IC50 was 40 nM. Compound `CC1=C(C(=O)OCCc2ccncc2)C(c2ccc(C#N)cc2)NC(=O)N1c1cccc(C(F)(F)F)c1` (stereo not shown) [Example 28, 2-(4-Pyridinyl)ethyl 4-(4-cyanophenyl)-6-methyl-2-oxo-1-[3-(trifluoromethyl)phenyl]-1,2,3,4-tetrahydro-5-pyrimidinecarboxylate] has an IC50 of 50 nM. Compound `CCOC(=O)C1=C(C)N(c2cccc(C(F)(F)F)c2)C(=O)N(C)C1c1ccc(C#N)cc1` (stereo not shown) [Example 14, Ethyl 4-(4-cyanophenyl)-3,6-dimethyl-2-oxo-1-[3-(trifluoromethyl)phenyl]-1,2,3,4-tetrahydro-5-pyrimidinecarboxylate] has an IC50 of 5 nM. With `CCOC(=O)C1=C(C)N(c2cccc(C(F)(F)F)c2)C(=O)NC1c1cccc([N+](=O)[O-])c1` (stereo not shown) [Example 103, Ethyl 6-methyl-4-(3-nitrophenyl)-2-oxo-1-[3-(trifluoromethyl)phenyl]-1,2,3,4-tetra-hydro-5-pyrimidinecarboxylate] the IC50 was 60 nM. For `CCOC(=O)C1=C(C)N(c2cccc(C(F)(F)F)c2)C(=O)N(C(=O)OCC)C1c1ccc(C#N)cc1` (stereo not shown) [Example 16, Diethyl 6-(4-cyanophenyl)-4-methyl-2-oxo-3-[3-(trifluoromethyl)phenyl]-3,6-di-hydro-1,5(2H)-pyrimidinedicarboxylate], the IC50 was 10 nM. For `CCOC(=O)C1=C(C)N(c2cccc(C(F)(F)F)c2)C(=O)N(CC(=O)N2CCN(C)CC2)C1c1ccc(C#N)cc1` (stereo not shown) [Example 60], the IC50 was 5 nM. `CCOC(=O)C1=C(C)N(c2cccc(C(F)(F)F)c2)C(=O)NC1c1ccc(C#N)nc1` (stereo not shown) [Example 24, Ethyl 4-(6-cyano-3-pyridinyl)-6-methyl-2-oxo-1-[3-(trifluoromethyl)phenyl]-1,2,3,4-tetrahydro-5-pyrimidinecarboxylate] was tested, and the IC50 was 13 nM. `CC1=C(C(=O)N(C)C)C(c2ccc(C#N)cc2)NC(=O)N1c1cccc(C(F)(F)F)c1` (stereo not shown) [Example 58] was tested, and the IC50 was 1100 nM. For `CCOC(=O)C1=C(C)N(c2cccc(C(F)(F)F)c2)C(=O)N(C(C)=O)C1c1ccc(C#N)cc1` (stereo not shown) [Example 15, Ethyl 3-acetyl-4-(4-cyanophenyl)-6-methyl-2-oxo-1-[3-(trifluoromethyl)phenyl]-1,2,3,4-tetrahydro-5-pyrimidinecarboxylate], the IC50 was 8 nM. Work on `CCOC(=O)C1=C(CN(CC)CC)N(c2cccc(C(F)(F)F)c2)C(=O)NC1c1ccc(C#N)cc1` (stereo not shown) [Example 20, Ethyl 4-(4-cyanophenyl)-6-[(diethylamino)methyl]-2-oxo-1-[3-(trifluoromethyl)-phenyl]-1,2,3,4-tetrahydro-5-pyrimidinecarboxylate] yielded an IC50 of 700 nM.

What follows are compounds tested on human polymorphonuclear cells (PMNs) (assay: In vitro PMN elastolysis assay (tritiated elastin)). Conditions: at 1.2 μM; mean±s.e.m.; n=3 different donors at 3.6×10^5 cells per well.
Format: cell-based
Description: In Vitro PMN Elastolysis Assay:
This assay is used to determine the elastolytic potential of human polymorphonuclear cells (PMNs) and assess the proportion of degradation due to neutrophil elastase [cf. Z. W. She et al., Am. J. Respir. Cell. Mol. Biol. 9, 386-392 (1993)].
Tritiated elastin, in suspension, is coated on to a 96 well plate at 10 μg per well. Test and reference [ZD-0892 (J. Med. Chem. 40, 1876-1885, 3173-3181 (1997), WO 95/21855) and α1 protease inhibitor (α1PI)] compounds are added to the wells at the appropriate concentrations. […] Porcine pancreatic elastase (1.3 μM is used as a positive control for the assay, and α1PI (1.2 μM) is used as the positive inhibitor of neutrophil elastase. The cellular control is PMNs without compound at each appropriate cell density. The cells plus compounds are incubated in a humidified incubator at 37° C. for 4 hours. The plates are centrifuged to allow the harvest of cell supernatant only. The supernatant is transferred in 75 μl volumes to corresponding wells of a 96 well Lumaplate™ (solid scintillant containing plates). The plates are dried until no liquid is visible in the wells and read in a beta counter for 3 minutes per well. […]
The compounds of this invention are evaluated for their inhibitory activity in this HNE-dependent model of neutrophil elastolysis.
“α1PI: α1 protease inhibitor, reference and positive inhibitor of neutrophil elastase” gave an inhibition of elastolysis of 83.46±3.97%.

Same assay, conditions: mean±s.e.m.; n=2 different donors at 3.6×10^5 cells per well
`COc1ccc(C(=O)N[C@H](C(=O)N2CCC[C@H]2C(=O)N[C@H](C(=O)C(F)(F)F)C(C)C)C(C)C)cc1` [ZD-0892] gave an IC50 of 45.5 ± 7.75 nM.
